Like-named read-outs stand apart in the source and are kept apart here.
Key:
[1] = biological target: T1, CCL17 (Homo sapiens, UniProt Q92583); assay: Interaction affinity with CCL17 by fluorescence extinction of tryptophan residues; assay type: binding; details: CCL17 1.5 μm, excitation 285 nm
T1 sequence (Q92583 24-94): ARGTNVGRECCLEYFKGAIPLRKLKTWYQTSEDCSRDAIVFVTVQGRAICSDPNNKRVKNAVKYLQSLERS
Procedure: Briefly: the fluorescence measurements are carried out on a spectrofluorimeter Fluorolog 3 (JobinYvon/Spex) in a quartz cuvette. […] The measurements are carried out at 20° C. and the solutions are stirred using a magnetic stir bar. The recorded emission spectra are corrected by subtraction of the emission spectrum of the compound to be tested alone.

[2] = biological target: T2, CCL22 (Homo sapiens, UniProt O00626); assay: Inhibition of calcium response induced by CCL22 in cells expressing CCR4 (Indo-1); assay type: cell-based; details: molecules at 10 μm, read-out: Inhibition of calcium responses induced by CCL22 (%)
T2 sequence (O00626 25-93): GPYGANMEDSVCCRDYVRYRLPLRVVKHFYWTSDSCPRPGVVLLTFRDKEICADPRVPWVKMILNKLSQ
Procedure: In order to enable an easy recording of the responses associated to the CCR4 receptor, the cDNA which allows its expression is cloned in the plasmid pIRES (ClonTech) in fusion with the GFP protein, according to Vollmer et al. (1999), which enables to easily measure the expression of the chimeric EGFP-CCR4 receptor. HEK 293 cells (ATCC) are cultured in minimal essential medium MEM (Invitrogen) in the presence of 10% of fetal calf serum (Gibco-BRL), 100 U/mL of penicillin (Invitrogen), 100 μg/mL of streptomycin (Invitrogen) and 2 mM of L-glutamine (Invitrogen) at 37° C. in water-saturated atmosphere and containing 5% of 002. The cells are transfected according to the calcium phosphate precipitate method of Chen ant Okayama, 1986, and the cells having incorporated the expression plasmid are selected with 600 μg/mL of geneticin G-418 (PAA) for 5 weeks. The clones are selected after having been characterized by fluorescence microscopy and cytometric analysis by FACS (fluorescence assisted cell sorting).
(§1) In order to enable an easy recording of the cell responses associated to the CCR4 receptor, we modify its natural coupling to the inhibition of AMPc production to a coupling to the phospholipase C which enables calcium measurements. We produce for this purpose the chimeric protein Gqi5 by directed mutagenesis of the 5 las amino acids of Gq replaced by their homologues of Gi. The cells expressing the CCR4 receptor are transfected with the plasmid pCNA3.1 in which the cDNA encoding Gqi5 has been incorporated. The recordings of calcic responses are performed the day after de transfection.
(§2) The cells are loaded with a fluorescent calcium indicator, INDO-1, according to the protocol provided by the provider (Molecular probes), distributed in microplate wells and placed in a fluorescence reader-pipettor (FlexStation, Molecular devices).
Intracellular calcium elevation is measured by fluorescence intensity change at 401 and 475 nm (excitation 355 nm). Measure points are recorded every 5 s for 150 s for each well. The molecules are tested in the presence of 5 nM of CCL17 chemokine (commercial).
The response develops in a few seconds and fades with time for reaching the return in approximately 2 minutes for a CCL17 chemokine concentration of 5 to 10 nM in HEK 293 cells expressing CCR4. If the molecules to be tested are preincubated with chemokine [CK+N] and if the mixture is added to the cells, we observe a strong decrease in the amplitude of the response if the molecule to be tested is a neutralizing ligand of the chemokine. Conversely, when the neutralizing ligand is preincubated with the cells expressing the receptor [CKR+N] we observe a much smaller decrease of the amplitude of the response.
The analysis of the molecules selectivity is carried out by measuring the inhibition (at the concentration of 10 μm) of the response evoked by other chemokines (5 μm) on their respective receptors. Thus, in FIG. 3, the molecules have been tested on the pairs CCL2/CCR2, CCL3/CCR5, CCL17/CCR4, CCL22/CCR4, […], CXCL11/CXCR3, CXCL12/CXCR4.

[3] = biological target: T3, CCL17 chemokine (Homo sapiens, UniProt Q92583); assay: Inhibition of calcium response induced by CCL17 in HEK 293 cells expressing CCR4 (Indo-1); assay type: cell-based
T3 construct: purchased; host or cells: HEK 293 cells stably transfected with EGFP-CCR4, transiently transfected with Gqi5
T3 sequence (Q92583 24-94): T1 sequence (Q92583 24-94)
Procedure: HEK 293 cells (ATCC) are cultured in minimal essential medium MEM (Invitrogen) in the presence of 10% of fetal calf serum (Gibco-BRL), 100 U/mL of penicillin (Invitrogen), 100 μg/mL of streptomycin (Invitrogen) and 2 mM of L-glutamine (Invitrogen) at 37° C. in water-saturated atmosphere and containing 5% of 002. […] The clones are selected after having been characterized by fluorescence microscopy and cytometric analysis by FACS (fluorescence assisted cell sorting).
as §1, §2
Measure points are recorded every 5 s for 150 s for each well. The molecules are tested in the presence of 5 nM of CCL17 chemokine (commercial).
The molecules are tested at the concentration of 10 μm. The concentration of CCL17 is 5 nM.

[4] = biological target: T4, COX-2 (Homo sapiens, UniProt P35354); assay: COX-2 activity by PGE2 production in LPS-induced monocytes; assay type: cell-based; details: LPS-treated monocytes
T4 construct: endogenous in cells; host or cells: human monocytes in culture, LPS-induced
T4 sequence (P35354 18-604): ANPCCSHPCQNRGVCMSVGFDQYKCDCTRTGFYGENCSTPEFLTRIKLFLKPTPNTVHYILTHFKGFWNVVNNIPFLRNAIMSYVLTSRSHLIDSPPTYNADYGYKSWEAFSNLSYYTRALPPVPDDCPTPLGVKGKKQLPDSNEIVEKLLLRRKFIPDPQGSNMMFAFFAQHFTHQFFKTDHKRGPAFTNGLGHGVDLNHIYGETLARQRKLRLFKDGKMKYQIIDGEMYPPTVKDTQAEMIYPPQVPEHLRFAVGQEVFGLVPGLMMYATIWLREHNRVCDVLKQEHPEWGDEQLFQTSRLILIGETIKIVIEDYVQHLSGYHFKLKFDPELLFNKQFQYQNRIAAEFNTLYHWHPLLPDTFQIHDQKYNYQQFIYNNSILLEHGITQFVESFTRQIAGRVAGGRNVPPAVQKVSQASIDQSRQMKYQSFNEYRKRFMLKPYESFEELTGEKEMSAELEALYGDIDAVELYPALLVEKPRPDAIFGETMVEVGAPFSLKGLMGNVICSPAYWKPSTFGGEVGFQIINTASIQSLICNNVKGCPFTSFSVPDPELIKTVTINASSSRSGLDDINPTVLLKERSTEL
Procedure: (§3) Determination of the Activity of COX 1 and COX 2 Cyclooxygenases on Human Monocytes in Culture.
COX-2: monocytes are incubated with LPS (10 U/ml) for 24 h in order to induce COX-2 synthesis. […] The arachidonic acid is added 15 minutes after the compounds to be tested, and 15 minutes later the production of PGE2 is determined.

[5] = tested on: Hacat cells; assay: Human keratinocytes migration assay (in vitro wound-healing test in a cell monolayer); assay type: cell-based
Procedure: It is actually known that, in chronic pathologies an important cell migration may promote de formation of pruritus, one of the signs of dermatosis. The immortalized human keratinocytes obtained from the DKFZ (Heidelberg, Germany) are cultivated in Dulbecco medium modified by Eagle (DMEM, Invitrogen) supplemented with 10% of fetal calf serum (Gibco-BRL) and 100 U/ml of penicillin (Invitrogen), 100 μg/ml of streptomycin (Invitrogen) and 2 mM of L-glutamine (Invitrogen) at 37° C. and 5% of CO2. The wells of a culture plate of 24 well are inoculated with 200,000 cells and the culture is maintained until formation of a confluent cell monolayer. The cell monolayer is then damaged by performing a linear gap (scratch) using a sterile pipette head of 0.1-10 μL. […] The effect of the molecules alone is also recorded in different wells. In order to block cell proliferation, each well receives a dose of 1 μg/ml of mitomycin (Sigma-Aldrich). The culture plates are arranged in the IncuCyte apparatus (Essence Bioscience) which records the growth on the cell monolayer by transmitted imaging in cell culture conditions (37° C., 5% CO2, water-saturated atmosphere) for 72 h. Phase-contrast images are collected every 2 hours. Healing is defined (quantified) as the ratio of the width of the scar at time t and time 0. The experiment is repeated three times per condition.

[6] = biological target: T5, COX-1 (Homo sapiens, UniProt P23219); assay: COX-1 activity by PGE2 production in monocytes treated with arachidonic acid; assay type: cell-based; details: up to 250 μM
T5 construct: endogenous in cells; host or cells: human monocytes in culture
Procedure: as §3
COX-1: the release of COX-1 mediated prostaglandin E2 (PGE2) is determined by the arachidonic acid method. […] After 15 minutes of stimulation, the activity of COX-1 is measured by determination of the production of PGE2. Aspirin (ASS) a known inhibitor of COX-1 is used as a control inhibitor.

[7] = tested on: human monocytes; assay: Cytotoxicity on human monocytes, Alamar blue assay; assay type: cell-based; details: human monocytes with LPS, 5 concentrations, 24 hours
Procedure: Monocytes are inoculated in plates of 96 wells (approx. 5000 cells/well of 200 μl) for the Alamar blue assay.
After 24 hours, Alamar blue fluorescence is measured.

[8] = tested on: Hacat cells; assay: Cytotoxicity measurement, WST-1 metabolic activity test; assay type: cell-based, human; details: 0.3 μM, 10 μM or 30 μM, 72 hours
[9] = HEK293, molecules at 10 μm, CCL17 5 nM, HEK 293 cells expressing CCR4, read-out: Inhibition of calcium responses induced by CCL17 (%)
[10] = HEK293, read-out: Inhibition of calcium responses induced by CCL17 (%)

Compound: COc1cc2nc(N3CCC(N4CCCCC4)CC3)nc(NC3CCCCCC3)c2cc1OC [C-021, reference compound]
- Fluorescence extinction of CCL17 (intrinsic tryptophan fluorescence) [1]: no signal

Compound: Cn1c(=O)c2c(ncn2C)n(C)c1=O [Caffeine, reference compound]
- inhibition at 10 µM [2]: 0%
- inhibition at 10 µM [3, 9]: 0%

Compound: Cc1nc2c(=O)[nH]c(=O)[nH]c2[nH]1 [GPN062]
- inhibition at 10 µM [2]: 0%
- inhibition at 10 µM [3, 9]: 0%

Compound: CC(C)=CCn1cnc2c1c(=O)n(C)c(=O)n2C [GPN279, 3,7-dihydro-1,3-dimethyl-7-(3-methyl-2-butenyl)-1H-purin-2,6-dione]
- Fluorescence extinction of CCL17 (intrinsic tryptophan fluorescence) [1]: fluorescence extinction of CCL17 is observed
- Effect on COX-2 activity (PGE2 production) ([4]; beyond 100 μM): slight increase in COX-2 activity
- Effect on COX-2 activity (PGE2 production) ([4]; up to the dose of 100 μM): no effect
- Effect on cell migration accelerated by the CCL17 chemokine ([5]; Hacat monolayer, CCL17 100 ng/ml, 72 hours): abolished
- Dose-response relationship on Hacat cell monolayer healing ([5]; with CCL17, 0.3 μM, 1 μM, 10 μM): its effect depends on the dose
- Effect of the molecule alone on Hacat cell monolayer healing ([5]; without CCL17): does not have an effect
- inhibition at 10 µM [2]: 0%
- COX-1 inhibition (PGE2 production) [6]: not a COX-1 inhibitor
- Cytotoxicity by Alamar blue [7]: not cytotoxic
- Activity of the mitochondrial enzyme (WST-1, absorbance 450 nm) [8]: does not affect enzymatic activity
- Inhibition of calcium responses induced by CCL17 (%) ([3]; molecules at 10 μm, CCL17 5 nM, HEK 293 cells expressing CCR4): 42 ± 4%

Compound: CCCCn1cnc2c1c(=O)n(C)c(=O)n2C [GPS008658, 3,7-dihydro-7-butyl-1,3-dimethyl-1H-purine-2,6-dione]
- inhibition at 10 µM [2]: 32 ± 8%
- inhibition at 10 µM [3, 10]: 40 ± 9%

Compound: CC(C)Cn1cnc2c1c(=O)n(C)c(=O)n2C [GPS008659, 3,7-dihydro-7-isobutyl-1,3-dimethyl-1H-purine-2,6-dione]
- inhibition at 10 µM [2]: 5 ± 5%
- inhibition at 10 µM [3, 10]: 36 ± 7%

Compound: C=CCn1cnc2c1c(=O)n(C)c(=O)n2C [GPS008660, 3,7-dihydro-7-allyl-1,3-dimethyl-1H-purine-2,6-dione]
- inhibition at 10 µM [2]: 0%
- inhibition at 10 µM [3, 10]: 19 ± 5%

Compound: CCCCC(CC)Cn1cnc2c1c(=O)n(C)c(=O)n2C (stereo not shown) [GPS008661, 3,7-dihydro-7-(2-ethylhexyl)-1,3-dimethyl-1H-purine-2,6-dione]
- inhibition at 10 µM [2]: 0%
- inhibition at 10 µM [3, 9]: 0%

Compound: CC(C)Cn1c(=O)n(C)c(=O)c2nc[nH]c21 [IBMX, reference compound]
- inhibition at 10 µM [2]: 0%
- inhibition at 10 µM [3, 9]: 0%

Compound: Cn1c(=O)c2[nH]cnc2n(C)c1=O [Theophylline, reference compound]
- inhibition at 10 µM [2]: 0%
- inhibition at 10 µM [3, 10]: 0%
